Source: US20080318781A1, “Method of Controlling Weeds” (priority 2005, published 2008)

What was measured:
Format in all cases: in vivo
[1] = tested on: glyphosate resistant soybeans; test: Example 1 field test, pre-plant treatment: phytotoxicity in crop; conditions: 44 days after treatment, crop planted at 15 DAT, use rate g/ha: glyphosate 870, I.7 25, I.7 + glyphosate 25 + 870, I.7 + imazethapyr 25 + 70, 0 = no damage, 100 = complete destruction
Text: (§1) The phenyluracils I and/or the other active ingredients according to the present invention were formulated in a suitable way, either separately or in mixture, e.g. as emulsifiable concentrates (EC), soluble concentrates (SL), suspo-emulsions (SE), suspension concentrates (SC) or water-dispersible granules (WG). The formulation(s) were suspended or emulsified in water as a distribution medium immediately prior to spraying. Afterwards, the aqueous mixture was evenly sprayed on the test plots by means of finely distributing nozzles.
(§2) The test plots were of uniform size (typically between 14 and 37 square meters, each) and the distribution of treated and untreated plots was organized according to a randomised bloc design. Crops were sown in rows at a season which was typical for the region and the crop according to usual farm practice. Weeds were not sown but germinated according to the natural infestation.
(§3) For pre-plant and pre-plant burn-down treatments, the plots were treated before the crop was planted, typically 7 to 28 days prior to planting. For pre-emergence treatments, the plots were treated at planting (plus or minus two days) but before emergence. For post-emergence or in-crop treatments, the plots were treated after the emergence of the weed or crop, typically 20 to 50 days after planting. […]

Giant ragweed (AMBTR) [2] = test: Example 1 field test, pre-plant treatment: weed control; conditions: 44 days after treatment, use rate g/ha: glyphosate 870, I.7 25, I.7 + glyphosate 25 + 870, I.7 + imazethapyr 25 + 70
Text: as §1, §2, §3

Velvetleaf (ABUTH) [3] = test: as above; conditions: 44 days after treatment, use rate g/ha: glyphosate 870, I.7 25, I.7 + glyphosate 25 + 870, I.7 + imazethapyr 25 + 70
Text: as §1, §2, §3

[4] = tested on: glyphosate resistant soybeans; test: Example 2 field test, pre-plant burn-down treatment followed by in-crop glyphosate: phytotoxicity in crop; conditions: 86 days after first treatment; pre-plant burn-down (glyphosate 870 g/ha or I.7 50 g/ha), followed by glyphosate 870 g/ha at 53 DAT; crop planted at 8 DAT
Text: as §1, §2, §3

[5] = tested on: Common lambsquarters (CHEAL); test: Example 2 field test, pre-plant burn-down treatment followed by in-crop glyphosate: weed control; conditions: 86 days after first treatment; pre-plant burn-down (glyphosate 870 g/ha or I.7 50 g/ha), followed by glyphosate 870 g/ha at 53 DAT
Text: as §1, §2
(§4) For pre-plant and pre-plant burn-down treatments, the plots were treated before the crop was planted, typically 7 to 28 days prior to planting. For pre-emergence treatments, the plots were treated at planting (plus or minus two days) but before emergence. For post-emergence or in-crop treatments, the plots were treated after the emergence of the weed or crop, typically 20 to 50 days after planting.
(§5) The evaluation of the damage caused by the phenyluracils I and/or the other active ingredients according to the present invention was carried out using a scale from 0 to 100%, compared to the untreated control plots. Here, 0 means no damage and 100 means complete destruction of the plants of a respective weed or crop species.
(§6) Weed control in glyphosate resistant soybeans 86 days after the first treatment; pre-plant burn-down treatment followed by an in-crop glyphosate treatment at 53 DAT; field test.
(§7) In this example, glyphosate (potassium salt) was formulated as a 540 g/l SL and phenyluracil I.7 as a 120 g/l EC. […]

Giant ragweed (AMBTR) [6] = test: as above; conditions: 86 days after first treatment; pre-plant burn-down (glyphosate 870 g/ha or I.7 50 g/ha), followed by glyphosate 870 g/ha at 53 DAT
Text: as §1, §2, §4, §5, §6, §7

Velvetleaf (ABUTH) [7] = test: as above; conditions: 86 days after first treatment; pre-plant burn-down (glyphosate 870 g/ha or I.7 50 g/ha), followed by glyphosate 870 g/ha at 53 DAT
Text: as §1, §2, §4, §5, §6, §7

[8] = tested on: glyphosate resistant soybeans; test: Example 3 field test, pre-plant treatment followed by in-crop glyphosate: phytotoxicity in crop; conditions: 57 days after first treatment; pre-plant (glyphosate 870; I.7 25; I.7 + glyphosate 25 + 870; I.7 + imazethapyr 25 + 70 g/ha), followed by glyphosate 870 g/ha at 42 DAT; crop planted at 12 DAT
Text: as §1, §2, §3

[9] = tested on: Common lambsquarters (CHEAL); test: Example 3 field test, pre-plant treatment followed by in-crop glyphosate: weed control; conditions: 57 days after first treatment; pre-plant (glyphosate 870; I.7 25; I.7 + glyphosate 25 + 870; I.7 + imazethapyr 25 + 70 g/ha), followed by glyphosate 870 g/ha at 42 DAT
Text: as §1, §2, §3

Giant ragweed (AMBTR) [10] = test: as above; conditions: 57 days after first treatment; pre-plant (glyphosate 870; I.7 25; I.7 + glyphosate 25 + 870; I.7 + imazethapyr 25 + 70 g/ha), followed by glyphosate 870 g/ha at 42 DAT
Text: as §1, §2, §3

## O=C(O)CNCP(=O)(O)O [Glyphosate, glyphosate]
[1]
  Phytotoxicity in glyphosate resistant soybeans (% damage): 0%
Giant ragweed (AMBTR) [2]
  Weed control (% control) Giant ragweed (AMBTR): 86%
Velvetleaf (ABUTH) [3]
  Weed control (% control) Velvetleaf (ABUTH): 17%
[4]
  Phytotoxicity in glyphosate resistant soybeans (% damage): 0%
[5]
  Weed control (% control) Common lambsquarters (CHEAL): 89%
Giant ragweed (AMBTR) [6]
  Weed control (% control) Giant ragweed (AMBTR): 86%
Velvetleaf (ABUTH) [7]
  Weed control (% control) Velvetleaf (ABUTH): 91%
[8]
  Phytotoxicity in glyphosate resistant soybeans (% damage): 0%
[9]
  Weed control (% control) Common lambsquarters (CHEAL): 83%
Giant ragweed (AMBTR) [10]
  Weed control (% control) Giant ragweed (AMBTR): 72%
